Measured values taken from patent US20260232720A1, “NEW MEDICAL USE OF SEVUPARIN IN THE TREATMENT OF ENDOTOXEMIA” (Modus Therapeutics AB, priority 2023, published 2026).
Read-outs that look alike come from different tables or passages of the source.

Columns and labels:
[1] = system: inflammatory biomarkers cytokines and C-Reactive Protein (CRP); settings: for C-Reactive Protein / IL-6 in plasma / IL-8 in plasma / IL-10 in plasma / TNF-α in plasma: LS Means, IV LPS 1 ng/kg
Text: (§1) A randomized, placebo-controlled study to evaluate the effects of intravenous sevuparin on LPS reactions (first part), and the interaction between subcutaneous enoxaparin and sevuparin on coagulation responses in healthy volunteers (second part), has been performed.
(§2) Objectives for first part of the clinical study: To evaluate the effect of intarvenous (IV) sevuparin on safety and tolerability and inflammatory responses following an intravenous (IV) LPS challenge.
(§3) • Leucocyte differential • Cytokines (including IL-6, IL-8, IL-10 and TNF-α) • Flow cytometry (Neutrophils, monocyte subsets, T cells, B cells, NK cells, dendritic cells, including neutrophil extracellular traps) • Explorative biomarkers: acute phase reactants and components measurable in blood, serum and plasma of relevance for septic inflammation may be measured and reported separately.
(§4) In the first part of the study, sevuparin (or matching placebo) is administered by IV infusion (bolus loading dose followed by continuous infusion over 6 hours); In the second part of the study, sevuparin and enoxaparin are given by subcutaneous injection.
(§5) The sevuparin dose was as follows in the first part of the study: • Group 1 (sevuparin low dose): loading bolus dose of 0.3 mg/kg bodyweight, followed by IV infusion at 0.08 mg/kg/h; • Group 2 (sevuparin intermediate dose): loading dose of 1 mg/kg bodyweight, followed by IV infusion at 0.25 mg/kg/h; • Group 3 (sevuparin high dose): loading dose of 3 mg/kg bodyweight, followed by IV infusion at 0.75 mg/kg/h.
(§6) In the first part of the study, 1 ng/kg bodyweight of LPS was administered intravenously.
(§7) In the first part of the study, a total of 48 male and female healthy volunteers were enrolled and randomized over 4 treatment groups (sevuparin low, intermediate or high dose or matching placebo). Each treatment group consisted of 12 healthy volunteers. All subjects underwent an intravenous LPS challenge.
(§8) In the first part of the current study, subjects are administered with intravenous LPS 30 min after the start of the infusion of sevuparin on study Day 1. LPS, purified lipopolysaccharide prepared from Escherichia Coli: 113: H10: K negative (U.S. Standard Reference Endotoxin) is used. This LPS batch was manufactured in the US by List Biological Laboratories. All participants received 1 ng/kg E. coli purified LPS, administered as a 2-minute infusion. To ensure that participants stay adequately hydrated, additionally saline (NaCl 0.9%) or glucose/saline was infused (2.5% glucose/0.45% sodium chloride) starting approximately 2 hours before LPS administration at a rate of 750 ml/h, until 6 h afterwards at a rate of 150 ml/h (Hijma et al., 2020). During infusion of study drug or placebo, infused over 6 hours at an infusion rate of 80 mL/h, the infusion rate of glucose/saline was lowered to 80 mL/h.
Blood is collected at time points as shown in Table 1 below for the assessment of cytokines. Venous blood (4 mL) is collected in K2EDTA tubes. Plasma is collected after centrifugation at 2000×g for 20 minutes at room temperature and stored at −80° C., in 3×0.5 ml aliquots until analysis. Samples are analysed by Ardena Laboratories Assen.
(§9) Throughout the Figures and tables related to the clinical study test results, the following abbreviations and its definitions are used: • IV LPS Placebo means subjects who have been challenged with intravenous LPS and thereafter received placebo intravenously as described above. • Sevuparin 0.3/0.08 means (sevuparin low dose): loading bolus dose of 0.3 mg/kg bodyweight, followed by 0.08 mg/kg/h intravenously; • Sevuparin 1/0.25 means (sevuparin intermediate dose): loading dose of 1 mg/kg bodyweight, followed by 0.25 mg/kg/h intravenously; • Sevuparin 3/0.75 means (sevuparin high dose): loading dose of 3 mg/kg bodyweight, followed by 0.75 mg/kg/h intravenously.

[2] = system: healthy volunteers; settings: for Body temperature / Diastolic blood pressure / Heart rate / NRS feeling sick / Systolic blood pressure: LS Means, IV LPS 1 ng/kg
Text: as §1, §2, §4, §5, §6, §7, §8
Evaluations of systolic and diastolic blood pressure, pulse rate, respiratory rate, and temperature is performed throughout the study. Pulse and blood pressure is taken after 5 minutes in the supine position. Automated oscillometric blood pressures and pulse rate is measured using a Dash 3000,
Subjective assessment of feeling sick is recorded by the subjects during the first part of the study (IV LPS infusion) on a numeric rating scale (NRS) electronically.
as §9

[3] = system: healthy volunteers; settings: for Basophil count / Eosinophil count / Lymphocyte count / Monocyte count / Neutrophil count: LS Means, IV LPS 1 ng/kg
Text: as §1, §2, §3, §4, §5, §6, §7, §8
Blood and other biological samples are collected for the following clinical laboratory tests: Haematology; Chemistry and electrolytes; Glucose; […] (after 4-hours fasting); […] (conjugated bilirubin is reported only when total bilirubin is outside the reference range); Virology; Urinalysis; Pregnancy (for women, serum pregnancy test is performed at screening and urine pregnancy test at other visits when scheduled, and if pregnancy is suspected during the study); Alcohol screening; and Urine drug screening.

[4] = sevuparin 0.3/0.08 (loading bolus 0.3 mg/kg, then 0.08 mg/kg/h IV)
[5] = sevuparin 1.0/0.25 (loading 1 mg/kg, then 0.25 mg/kg/h IV)
[6] = sevuparin 3.0/0.75 (loading 3 mg/kg, then 0.75 mg/kg/h IV)
[7] = IV LPS, in words, all doses vs placebo

sevuparin
therapeutic effect on C-Reactive Protein (CRP) ([1]; IV LPS, in words, vs placebo): no therapeutic effect
therapeutic effect on the inflammatory biomarkers cytokines ([1]; IV LPS, in words, vs placebo): no therapeutic effect
C-Reactive Protein [1, 4]: 10.893 mg/mL
IL-6 in plasma [1, 4]: 19.587 pg/mL
IL-8 in plasma [1, 4]: 19.393 pg/mL
IL-10 in plasma [1, 4]: 8.125 pg/mL
TNF-α in plasma [1, 4]: 5.574 pg/mL
C-Reactive Protein [1, 5]: 11.080 mg/mL
IL-6 in plasma [1, 5]: 16.012 pg/mL
IL-8 in plasma [1, 5]: 19.843 pg/mL
IL-10 in plasma [1, 5]: 11.825 pg/mL
TNF-α in plasma [1, 5]: 5.415 pg/mL
C-Reactive Protein [1, 6]: 11.853 mg/mL
IL-6 in plasma [1, 6]: 13.712 pg/mL
IL-8 in plasma [1, 6]: 17.820 pg/mL
IL-10 in plasma [1, 6]: 7.527 pg/mL
TNF-α in plasma [1, 6]: 5.039 pg/mL
respiratory rate compared to placebo ([2]; FIG. 2, IV LPS, highest intravenously administered dose of sevuparin): improvement of the respiratory rate
therapeutic impact on body temperature [2, 7]: did not have any therapeutic impact
therapeutic impact on diastolic blood pressure [2, 7]: did not have any therapeutic impact
therapeutic impact on feeling sick [2, 7]: did not have any therapeutic impact
therapeutic impact on heart rate [2, 7]: did not have any therapeutic impact
therapeutic impact on systolic blood pressure [2, 7]: did not have any therapeutic impact
Body temperature [2, 4]: 37.13
Diastolic blood pressure [2, 4]: 63.5 mm Hg
Heart rate [2, 4]: 69.7 bpm
NRS feeling sick [2, 4]: 1.9
Systolic blood pressure [2, 4]: 115.5 mm Hg
Body temperature [2, 5]: 36.93
Diastolic blood pressure [2, 5]: 63.9 mm Hg
Heart rate [2, 5]: 71.1 bpm
NRS feeling sick [2, 5]: 1.9
Systolic blood pressure [2, 5]: 117.3 mm Hg
Body temperature [2, 6]: 36.97
Diastolic blood pressure [2, 6]: 62.7 mm Hg
Heart rate [2, 6]: 70.5 bpm
NRS feeling sick [2, 6]: 2.0
Systolic blood pressure [2, 6]: 114.0 mm Hg
change in basophils compared to placebo control ([3]; IV LPS, in words): dose dependent pronounced increase
change in neutrophils compared to placebo control ([3]; IV LPS, in words): dose dependent pronounced increase
change in lymphocytes compared to placebo control ([3]; IV LPS, in words, FIG. 1): dose dependent pronounced increase
Basophil count [3, 4]: 0.029 E9/L
Eosinophil count [3, 4]: 0.114 E9/L
Lymphocyte count [3, 4]: 1.046 E9/L
Monocyte count [3, 4]: 0.335 E9/L
Neutrophil count [3, 4]: 6.650 E9/L
Basophil count [3, 5]: 0.032 E9/L
Eosinophil count [3, 5]: 0.105 E9/L
Lymphocyte count [3, 5]: 1.136 E9/L
Monocyte count [3, 5]: 0.339 E9/L
Neutrophil count [3, 5]: 5.788 E9/L
Basophil count [3, 6]: 0.039 E9/L
Eosinophil count [3, 6]: 0.117 E9/L
Lymphocyte count [3, 6]: 1.369 E9/L
Monocyte count [3, 6]: 0.376 E9/L
Neutrophil count [3, 6]: 7.073 E9/L
